# Laboratory results from US20050130252A1, “Stabilized susceptibility tests of aerobic pathogens” (Wyeth Holdings Corporation, priority 2003, published 2005).
# Where two headings read alike, the source gives them in different places.
# Tests used:
# E. faecalis ATCC 29212 = experiment: Broth microdilution MIC; format: cell-based, Enterococcus faecalis; details: for MIC: Enterococcus faecalis
# Procedure: The process for preparing susceptibility test medium are the following steps: • a. Preparing Mueller Hinton Broth II medium by adding 22 grams powdered media to 1.0 liter distilled water; • b. Autoclaving (121° C., 15 psi, 15 minutes) and cooling the medium; • c. Adding Oxyrase® up to about 10% final volume and keeping at 35-37° C. in an incubator for 30 minutes; • d. Adding about 50 μL to each well of a 96 well microtiter plate; • e. Weighing drug and adding broth to drug to bring up to about (standard 128 μg/ml); • f. Adding 50 μL of the drug to the first column of the titer plate; • g. Diluting by two-fold serial diluting across or down the plate. • h. Preparing a Prompt™ inoculum at 10^8 CFU/ml; • i. Diluting inoculum 1:100 in the broth at […] in 9.9 ml (1:100) is 10^6 colony forming units (CFU) forming the adjusted inoculum; • j. Adding 50 μL of the adjusted inoculum to the wells of the microtiter plate; • k. Incubating the plates at 35-37° C. for 18-22 hours; and • l. Reading, with the unaided eye, the MIC.
# (§1) The in vitro activities of tigecycline and control antibiotics were determined by the broth microdilution method as recommended by the NCCLS. (National Committee for Clinical Laboratory Standards, 2003. Methods for Dilution Antimicrobial Susceptibility Tests for Bacteria That Grow Aerobically; Approved Standards: M7-A6, Sixth ed, vol. 23., National Committee for Clinical Laboratory Standards Wayne, Pa.) was used for the standard procedures. MBH with 5% lysed horse blood was used for testing S. pneumoniae and Haemophilus Test Medium was used for testing H. influenzae. Oxyrase® (Oxyrase Inc, Mansfield, Ohio) was used according to the manufacturer's instructions by adding 1 ml of Oxyrase® to 50 ml of media. Media age studies were performed by preparing MHB in multiple flasks, then storing the media under various conditions. MICs were usually performed in duplicate on each day of testing. Storage under anaerobic conditions was conducted in an anaerobic chamber (MACS MG 1000, Don Whitley Scientific LTD). The pH of the media was determined by pH meter (Corning 430). A comparison of the in vitro activity of tigecycline by agar and broth dilution methodolgies with and without Oxyrase® against clinical isolates is shown in Table 1.
# E. coli ATCC 25922 = experiment: Time-kill assay, fresh vs aged Mueller-Hinton broth; format: cell-based, Escherichia coli; details: FIG. 1
# Procedure: Time-kill assays were performed by the broth macrodilution method in accordance with the NCCLS guidelines (NCCLS. 1999. Methods for Determining Bactericidal Activity of Antimicrobial Agents; Approved Guidelines: M26-A, vol. 19. National Committee for Clinical Laboratory Standards, Wayne, Pa.). A starting inoculum of approximately 10^6 CFU/ml and a final concentration of the antibiotic equal to four times the MIC were employed for these assays. Flasks containing 50 ml of MHB II with the appropriate antimicrobial agent were inoculated with […] of the test organism in logarithmic growth phase. Test flasks (250 ml) were incubated with shaking (150 RPM) in a 35° C. water bath. Aliquots were removed for the determination of viable counts at 0, 2, 4, 6 and 24 hours. Serial dilutions were prepared in sterile 0.85% sodium chloride solution. The diluted samples (0.05 ml) were plated onto appropriate agar plates trypticase soy agar (TSA) with a spiral plater (Don Whitley Scientific LTD). The plates were incubated at 35° C. in ambient air for 18-22 hours and the number of colonies were determined on the ProtoCOL plate reader plater (Don Whitley Scientific LTD). Killing curves were constructed by plotting the log10 CFU/ml versus time over 24 hours and the change in bacterial concentration was determined. Data is shown graphically in FIG. 1. Presented in Table 3 are the minimal inhibitory concentration results of the effect of media age, fresh vs. aged and Oxyrase® on the activity of tigecycline.
# To further establish this effect, a time kill experiment was performed with E. coli ATCC 25922 in fresh and aged media at […] and 1 μg/ml of tigecycline, which represents 1×, and 4×MIC of this organism determined in aged media. […]
# [1] = tested on: clinical isolates and strains expressing various tetracycline resistance determinants; experiment: Broth microdilution MIC, panel of clinical isolates and tetracycline-resistant strains taken together; format: cell-based; details: Table 5 panel
# Procedure: as §1, with “1. […]” for “1.”
# [2] = Table 8, E. faecalis ATCC 29212, Mueller Hinton Broth + Oxyrase, n = 240
# [3] = Table 8, E. faecalis ATCC 29212, Mueller Hinton Broth, n = 320
# [4] = Table 9, E. faecalis ATCC 29212, Mueller Hinton Broth + Oxyrase, n = 31
# [5] = Table 9, E. faecalis ATCC 29212, Mueller Hinton Broth, n = 96
compound,measurement,setting,value
"CN(C)c1cc(NC(=O)CNC(C)(C)C)c(O)c2c1C[C@H]1C[C@H]3[C@H](N(C)C)C(O)=C(C(N)=O)C(=O)[C@@]3(O)C(O)=C1C2=O [Tigecycline, tigecycline]",MIC,"E. faecalis ATCC 29212; ATCC29212, read-out: Minimal Inhibitory Concentration, E. faecalis ATCC 29212, MHB II + 0.05% Catalase",0.5 µg/mL
same,MIC,"E. faecalis ATCC 29212; ATCC29212, read-out: Minimal Inhibitory Concentration, E. faecalis ATCC 29212, MHB II + 0.05% L-ascorbic Acid",1 µg/mL
same,MIC,"E. faecalis ATCC 29212; ATCC29212, read-out: Minimal Inhibitory Concentration, E. faecalis ATCC 29212, MHB II + 0.05% L-cysteine",0.12 µg/mL
same,MIC,"E. faecalis ATCC 29212; ATCC29212, read-out: Minimal Inhibitory Concentration, E. faecalis ATCC 29212, MHB II + 0.05% Sodium Pyruvate",0.25 µg/mL
same,MIC,"E. faecalis ATCC 29212; ATCC29212, read-out: Minimal Inhibitory Concentration, E. faecalis ATCC 29212, MHB II + 0.05% Thioglycolate",0.12 µg/mL
same,MIC,"E. faecalis ATCC 29212; ATCC29212, read-out: Minimal Inhibitory Concentration, E. faecalis ATCC 29212, MHB II + 2% Oxyrase",0.03 to 0.06 µg/mL
same,MIC,"E. faecalis ATCC 29212; ATCC29212, read-out: Minimal Inhibitory Concentration, E. faecalis ATCC 29212, Mueller Hinton Broth II (Fresh)",0.06 to 0.12 µg/mL
same,MIC,"E. faecalis ATCC 29212; ATCC29212, read-out: Minimal Inhibitory Concentration, E. faecalis ATCC 29212, No Oxyrase",0.25 µg/mL
same,MIC,"E. faecalis ATCC 29212; ATCC29212, read-out: Minimal Inhibitory Concentration, E. faecalis ATCC29212, media Aged Anaerobic, N = 4",0.03 µg/mL
same,Number of Occurrences of MIC 0.03 ug/ml,E. faecalis ATCC 29212; [2],5
same,Number of Occurrences of MIC 0.06 ug/ml,E. faecalis ATCC 29212; [2],203
same,Number of Occurrences of MIC 0.12 ug/ml,E. faecalis ATCC 29212; [2],28
same,Number of Occurrences of MIC 0.25 ug/ml,E. faecalis ATCC 29212; [2],2
same,Number of Occurrences of MIC 0.5 ug/ml,E. faecalis ATCC 29212; [2],1
same,Number of Occurrences of MIC 1 ug/ml,E. faecalis ATCC 29212; [2],1
same,Number of Occurrences of MIC 0.06 ug/ml,E. faecalis ATCC 29212; [3],1
same,Number of Occurrences of MIC 0.12 ug/ml,E. faecalis ATCC 29212; [3],96
same,Number of Occurrences of MIC 0.25 ug/ml,E. faecalis ATCC 29212; [3],140
same,Number of Occurrences of MIC 0.5 ug/ml,E. faecalis ATCC 29212; [3],16
same,Number of Occurrences of MIC 1 ug/ml,E. faecalis ATCC 29212; [3],64
same,Number of Occurrences of MIC 2 ug/ml,E. faecalis ATCC 29212; [3],3
same,Number of Occurrences of MIC 0.03 ug/ml,E. faecalis ATCC 29212; [4],6
same,Number of Occurrences of MIC 0.06 ug/ml,E. faecalis ATCC 29212; [4],14
same,Number of Occurrences of MIC 0.12 ug/ml,E. faecalis ATCC 29212; [4],11
same,Number of Occurrences of MIC 0.12 ug/ml,E. faecalis ATCC 29212; [5],25
same,Number of Occurrences of MIC 0.25 ug/ml,E. faecalis ATCC 29212; [5],52
same,Number of Occurrences of MIC 0.5 ug/ml,E. faecalis ATCC 29212; [5],19
same,"Time kill, growth of E. coli ATCC25922 in aged media","E. coli ATCC 25922; 0.12 μg/ml of tigecycline, aged media",regrowth of the strain after 6 h exposure
same,"Time kill, growth of E. coli ATCC25922 in fresh media","E. coli ATCC 25922; 0.12 and 1 μg/ml of tigecycline, fresh media",suppressed the growth
same,"Difference in viable growth, fresh vs aged media (time kill kinetics)",E. coli ATCC 25922; E. coli ATCC 25922,> 3 log10
same,MICs in fresh media lower than in aged media,[1],1 to 3 dilutions
